Results published in ChEMBL document CHEMBL4819072, “Radioligand and computational insight in structure - Activity relationship of saccharin derivatives being ipsapirone and revospirone analogues” (Bioorg Med Chem Lett, 2021).

What was measured:
[1] = biological target: T1, 5-hydroxytryptamine receptor 1A (Homo sapiens, UniProt P08908); assay: Displacement of [3H]-[…] from human 5-HT1AR expressed in human HEK293 cells; format: cell-based
T1 sequence (P08908 whole entry): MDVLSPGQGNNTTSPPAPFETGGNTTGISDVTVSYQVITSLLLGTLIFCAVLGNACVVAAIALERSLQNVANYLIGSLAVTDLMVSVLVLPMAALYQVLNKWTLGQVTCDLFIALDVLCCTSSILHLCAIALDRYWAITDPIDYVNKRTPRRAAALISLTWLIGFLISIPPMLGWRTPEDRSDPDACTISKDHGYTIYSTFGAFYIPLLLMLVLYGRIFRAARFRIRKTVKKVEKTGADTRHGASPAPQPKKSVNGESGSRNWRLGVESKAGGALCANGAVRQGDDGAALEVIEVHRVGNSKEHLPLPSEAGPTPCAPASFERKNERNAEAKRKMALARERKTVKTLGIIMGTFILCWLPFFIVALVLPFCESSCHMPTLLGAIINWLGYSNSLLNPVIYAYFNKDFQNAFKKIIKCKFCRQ

D(4) dopamine receptor = biological target: T2, D(4) dopamine receptor (Homo sapiens, UniProt P21917); assay: Binding affinity to human D4R
T2 sequence (P21917 whole entry): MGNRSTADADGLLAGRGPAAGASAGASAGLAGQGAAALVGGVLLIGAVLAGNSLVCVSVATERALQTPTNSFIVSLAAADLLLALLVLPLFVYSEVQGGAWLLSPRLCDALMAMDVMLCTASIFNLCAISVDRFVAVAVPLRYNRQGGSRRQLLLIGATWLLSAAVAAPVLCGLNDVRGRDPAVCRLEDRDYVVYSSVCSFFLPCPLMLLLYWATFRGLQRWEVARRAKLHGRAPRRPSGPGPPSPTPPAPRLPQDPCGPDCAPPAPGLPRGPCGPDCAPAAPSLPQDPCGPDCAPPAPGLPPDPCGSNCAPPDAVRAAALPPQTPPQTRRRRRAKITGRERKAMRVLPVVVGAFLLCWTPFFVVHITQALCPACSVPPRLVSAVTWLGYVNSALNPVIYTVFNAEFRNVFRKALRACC

[2] = biological target: 5-hydroxytryptamine receptor 7 (Homo sapiens, UniProt P34969); assay: Displacement of [3H]-5CT from human 5-HT7R expressed in human HEK293 cells; format: cell-based
[3] = biological target: 5-hydroxytryptamine receptor 6 (Homo sapiens, UniProt P50406); assay: Displacement of [3H]-LSD from human 5-HT6R expressed in human HEK293 cells; format: cell-based
D(2) dopamine receptor = D(2) dopamine receptor (Homo sapiens, UniProt P14416); assay: Displacement of [3H]-raclopride from human D2R expressed in human HEK293 cells; format: cell-based
[4] = biological target: 5-hydroxytryptamine receptor 2A (Homo sapiens, UniProt P28223); assay: Displacement of [3H]-ketanserin from human 5-HT2AR expressed in CHO cells; format: cell-based
[5] = biological target: T3, 5-hydroxytryptamine receptor 2C (Homo sapiens, UniProt P28335); assay: Binding affinity to human 5-HT2C
T3 sequence (P28335 whole entry): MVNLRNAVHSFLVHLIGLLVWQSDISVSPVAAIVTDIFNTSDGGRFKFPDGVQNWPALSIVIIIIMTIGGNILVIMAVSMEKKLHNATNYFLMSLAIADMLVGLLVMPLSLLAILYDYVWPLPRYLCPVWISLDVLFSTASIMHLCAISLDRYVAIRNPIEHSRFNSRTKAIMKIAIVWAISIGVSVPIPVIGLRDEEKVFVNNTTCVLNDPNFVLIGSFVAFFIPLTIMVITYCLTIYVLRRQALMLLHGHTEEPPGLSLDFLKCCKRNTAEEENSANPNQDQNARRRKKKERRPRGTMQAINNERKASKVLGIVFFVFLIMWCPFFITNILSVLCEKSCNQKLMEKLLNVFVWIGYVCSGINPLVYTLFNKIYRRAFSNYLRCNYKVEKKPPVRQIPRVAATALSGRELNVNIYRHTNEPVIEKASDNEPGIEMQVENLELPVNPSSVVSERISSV

[6] = biological target: T4, Adrenergic receptor alpha-1 (Homo sapiens, UniProt P35348+P25100+P35368); assay: Binding affinity to human adrenergic receptor alpha1; format: protein assay
T4 sequence (P35348 whole entry): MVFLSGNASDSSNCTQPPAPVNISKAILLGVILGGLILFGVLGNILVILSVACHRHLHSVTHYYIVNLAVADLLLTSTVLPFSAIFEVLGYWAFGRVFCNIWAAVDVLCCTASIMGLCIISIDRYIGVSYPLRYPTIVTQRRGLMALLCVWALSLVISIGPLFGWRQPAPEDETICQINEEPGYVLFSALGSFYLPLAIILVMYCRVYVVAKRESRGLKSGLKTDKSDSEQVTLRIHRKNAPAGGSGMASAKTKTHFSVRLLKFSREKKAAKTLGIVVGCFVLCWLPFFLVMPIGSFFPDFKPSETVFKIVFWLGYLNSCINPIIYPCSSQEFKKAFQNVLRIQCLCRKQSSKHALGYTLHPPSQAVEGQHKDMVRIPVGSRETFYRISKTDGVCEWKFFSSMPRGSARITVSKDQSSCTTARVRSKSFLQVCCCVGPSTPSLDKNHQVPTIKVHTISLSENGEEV
T4 sequence (P25100 whole entry): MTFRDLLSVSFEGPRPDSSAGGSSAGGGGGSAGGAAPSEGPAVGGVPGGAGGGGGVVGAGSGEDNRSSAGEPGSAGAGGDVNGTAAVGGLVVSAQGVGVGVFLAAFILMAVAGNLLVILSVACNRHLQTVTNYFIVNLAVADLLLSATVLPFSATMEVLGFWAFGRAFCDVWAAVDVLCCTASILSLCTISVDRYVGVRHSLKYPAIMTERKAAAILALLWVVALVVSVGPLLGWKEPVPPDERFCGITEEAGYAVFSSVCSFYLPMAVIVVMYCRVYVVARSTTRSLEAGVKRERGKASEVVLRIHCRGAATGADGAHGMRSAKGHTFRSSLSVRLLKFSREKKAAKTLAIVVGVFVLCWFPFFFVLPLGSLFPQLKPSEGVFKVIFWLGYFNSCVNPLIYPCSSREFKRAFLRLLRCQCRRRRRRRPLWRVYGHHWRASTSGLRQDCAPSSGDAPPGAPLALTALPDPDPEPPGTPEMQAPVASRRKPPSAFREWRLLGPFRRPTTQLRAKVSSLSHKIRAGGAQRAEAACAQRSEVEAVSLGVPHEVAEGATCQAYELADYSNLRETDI
T4 sequence (P35368 whole entry): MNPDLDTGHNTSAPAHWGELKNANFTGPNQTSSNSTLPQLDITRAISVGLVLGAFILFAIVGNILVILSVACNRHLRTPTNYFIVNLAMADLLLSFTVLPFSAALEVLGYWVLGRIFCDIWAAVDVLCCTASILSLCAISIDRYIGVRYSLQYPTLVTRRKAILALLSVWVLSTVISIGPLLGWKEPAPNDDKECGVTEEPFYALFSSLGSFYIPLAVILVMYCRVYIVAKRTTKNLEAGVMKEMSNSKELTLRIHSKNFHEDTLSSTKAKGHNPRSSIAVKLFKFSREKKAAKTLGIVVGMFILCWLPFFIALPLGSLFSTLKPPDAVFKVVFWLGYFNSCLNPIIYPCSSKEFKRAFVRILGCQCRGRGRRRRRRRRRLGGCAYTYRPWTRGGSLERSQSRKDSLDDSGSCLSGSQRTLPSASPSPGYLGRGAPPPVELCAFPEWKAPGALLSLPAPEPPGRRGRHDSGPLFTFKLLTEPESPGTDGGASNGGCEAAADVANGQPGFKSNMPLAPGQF

Chain of 5-hydroxytryptamine receptor 6 (P50406 whole entry): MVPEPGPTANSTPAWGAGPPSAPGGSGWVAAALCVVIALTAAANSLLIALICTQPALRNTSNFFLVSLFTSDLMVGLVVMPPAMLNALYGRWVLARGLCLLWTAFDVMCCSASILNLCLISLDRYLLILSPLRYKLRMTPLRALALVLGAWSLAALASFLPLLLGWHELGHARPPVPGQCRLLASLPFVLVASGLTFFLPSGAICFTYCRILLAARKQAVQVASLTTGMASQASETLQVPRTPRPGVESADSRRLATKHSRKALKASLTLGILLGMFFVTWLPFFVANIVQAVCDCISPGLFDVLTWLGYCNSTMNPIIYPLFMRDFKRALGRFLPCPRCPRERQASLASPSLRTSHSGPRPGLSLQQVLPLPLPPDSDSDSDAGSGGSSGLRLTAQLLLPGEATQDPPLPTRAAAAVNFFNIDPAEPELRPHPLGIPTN
Chain of 5-hydroxytryptamine receptor 7 (P34969 whole entry): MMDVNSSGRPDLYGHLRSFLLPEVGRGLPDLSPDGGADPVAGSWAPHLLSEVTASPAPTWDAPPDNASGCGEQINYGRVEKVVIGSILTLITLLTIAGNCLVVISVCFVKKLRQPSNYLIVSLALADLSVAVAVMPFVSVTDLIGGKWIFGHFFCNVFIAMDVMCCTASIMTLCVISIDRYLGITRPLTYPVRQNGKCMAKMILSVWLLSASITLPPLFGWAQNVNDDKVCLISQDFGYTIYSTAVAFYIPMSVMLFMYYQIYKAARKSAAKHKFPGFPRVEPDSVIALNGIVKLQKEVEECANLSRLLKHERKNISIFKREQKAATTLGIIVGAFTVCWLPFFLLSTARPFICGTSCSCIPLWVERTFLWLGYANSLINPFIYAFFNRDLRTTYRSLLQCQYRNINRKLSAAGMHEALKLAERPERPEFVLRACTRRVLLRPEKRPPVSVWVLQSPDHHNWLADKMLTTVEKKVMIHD
Chain of 5-hydroxytryptamine receptor 2A (P28223 whole entry): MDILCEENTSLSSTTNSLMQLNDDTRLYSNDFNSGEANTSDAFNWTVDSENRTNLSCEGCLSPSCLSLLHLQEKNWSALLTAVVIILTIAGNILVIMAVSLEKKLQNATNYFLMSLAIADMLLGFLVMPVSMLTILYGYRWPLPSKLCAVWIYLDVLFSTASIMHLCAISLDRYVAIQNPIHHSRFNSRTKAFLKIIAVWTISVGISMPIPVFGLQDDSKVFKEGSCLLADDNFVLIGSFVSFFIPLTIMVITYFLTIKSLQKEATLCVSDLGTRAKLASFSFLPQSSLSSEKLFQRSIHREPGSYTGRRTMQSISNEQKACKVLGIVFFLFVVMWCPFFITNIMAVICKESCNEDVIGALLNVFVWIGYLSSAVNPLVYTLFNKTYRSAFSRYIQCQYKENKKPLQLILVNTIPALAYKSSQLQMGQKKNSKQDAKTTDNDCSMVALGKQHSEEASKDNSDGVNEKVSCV
Chain of D(2) dopamine receptor (P14416 whole entry): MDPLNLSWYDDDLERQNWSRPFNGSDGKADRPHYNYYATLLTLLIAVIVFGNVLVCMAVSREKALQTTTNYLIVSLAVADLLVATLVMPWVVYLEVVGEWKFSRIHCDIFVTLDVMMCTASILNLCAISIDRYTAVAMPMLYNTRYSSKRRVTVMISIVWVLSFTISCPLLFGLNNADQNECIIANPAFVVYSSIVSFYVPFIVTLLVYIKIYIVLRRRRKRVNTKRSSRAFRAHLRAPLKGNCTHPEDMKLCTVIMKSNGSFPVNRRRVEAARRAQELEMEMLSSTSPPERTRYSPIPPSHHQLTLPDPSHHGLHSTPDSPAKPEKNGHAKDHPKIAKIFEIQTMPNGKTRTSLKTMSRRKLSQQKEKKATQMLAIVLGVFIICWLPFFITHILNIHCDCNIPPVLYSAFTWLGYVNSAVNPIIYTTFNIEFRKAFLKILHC

Ki [1] [nM]	Ki [2] [nM]	Ki [3] [nM]	Ki [4] [nM]	SMILES	other results
16	148	1840	313	O=C1c2ccccc2S(=O)(=O)N1CCCCCN1CCN(c2ccccc2)CC1	Ki (D(2) dopamine receptor): 165 nM
3	125	1990	584	COc1ccccc1N1CCN(CCCCCN2C(=O)c3ccccc3S2(=O)=O)CC1	Ki (D(2) dopamine receptor): 20 nM
400			700	O=C1c2ccccc2S(=O)(=O)N1CCCN1CCN(c2cccc(C(F)(F)F)c2)CC1	Ki [5]: > 5000 nM
10	105	779	764	COc1ccccc1N1CCN(CCCCCCN2C(=O)c3ccccc3S2(=O)=O)CC1	Ki (D(2) dopamine receptor): 1 nM
1	372	2660	2580	O=C1c2ccccc2S(=O)(=O)N1CCCCN1CCN(c2cccc(Cl)c2Cl)CC1	Ki (D(2) dopamine receptor): 26 nM
	487	72	299	O=C1c2ccccc2S(=O)(=O)N1CCCCCCN1CCN(c2ccc(Cl)cc2)CC1	
101	191	703	139	O=C1c2ccccc2S(=O)(=O)N1CCCCCN1CCN(c2ccc(Cl)cc2)CC1	Ki (D(2) dopamine receptor): 254 nM
16	36	101	105	O=C1c2ccccc2S(=O)(=O)N1CCCCCN1CCN(c2cccc3ccccc23)CC1	Ki (D(2) dopamine receptor): 20 nM
	487	72	299	O=C1c2ccccc2S(=O)(=O)N1CCCCCCN1CCN(c2cccc(Cl)c2Cl)CC1	
13	179	2630	1440	O=C1c2ccccc2S(=O)(=O)N1CCCCCN1CCN(c2ccccn2)CC1	Ki (D(2) dopamine receptor): 92 nM
21	35	1350	162	O=C1c2ccccc2S(=O)(=O)N1CCCCCN1CCN(c2cccc(C(F)(F)F)c2)CC1	Ki (D(2) dopamine receptor): 34 nM
29	149	197	126	O=C1c2ccccc2S(=O)(=O)N1CCCCCN1CCN(c2cccc(Cl)c2Cl)CC1	Ki (D(2) dopamine receptor): 17 nM

The remaining lines, values behind:

SMILES	Ki [1] [nM]	Ki [2] [nM]	Ki [3] [nM]	Ki [4] [nM]	other results
COc1cccc(N2CCN(CCCCCOc3ccccc3C(N)=O)CC2)c1	4				
O=C1c2ccccc2S(=O)(=O)N1CCCCN1CCN(c2ccc(Cl)cc2)CC1					Ki (D(4) dopamine receptor): 36 nM
O=C1c2ccccc2S(=O)(=O)N1CCN1CCN(c2cccc(C(F)(F)F)c2)CC1	> 5000				
COc1cccc(N2CCN(CCN3C(=O)c4ccccc4C3=O)CC2)c1	> 1000				
COc1cccc(N2CCN(CCCN3C(=O)c4ccccc4C3=O)CC2)c1	13				
COc1ccccc1N1CCN(Cc2ccc(CN3C(=O)c4ccccc4S3(=O)=O)cc2)CC1	77	97	10100	4750	Ki (D(2) dopamine receptor): 2 nM
O=c1oc2ccccc2c(=O)n1CCCN1CCN(c2ccccc2)CC1	402				
COc1cccc(N2CCN(CCCn3c(=O)oc4ccccc4c3=O)CC2)c1	46				
O=c1oc2ccccc2c(=O)n1CCCCN1CCN(c2ccccc2)CC1	2.8				
COc1ccccc1N1CCN(CCCCCCOc2ccccc2C(N)=O)CC1	3				
COc1cccc(N2CCN(CCCCCCn3c(=O)oc4ccccc4c3=O)CC2)c1	18				
COc1cccc(N2CCN(CCCCn3c(=O)oc4ccccc4c3=O)CC2)c1	3.2				
O=C1c2ccccc2C(=O)N1CCCCCCN1CCN(c2ccccc2)CC1	1				
O=C1c2ccccc2C(=O)N1CCN1CCN(c2ccccc2)CC1	> 1000				
O=C1c2ccccc2S(=O)(=O)N1CCCCN1CCN(c2ncccn2)CC1 [IPSAPIRONE]	7.9	1410	16800	15000	Ki [6]: 229 nM
O=C1c2ccccc2C(=O)N1CCCCN1CCN(c2ccccc2)CC1	10				
COc1ccccc1N1CCN(CCCCCN2C(=O)c3ccccc3C2=O)CC1	7.2				
COc1cccc(N2CCN(CCCOc3ccccc3C(N)=O)CC2)c1	21				
O=C1c2ccccc2S(=O)(=O)N1CCCCCN1CCN(c2ncccn2)CC1	6	2670	7100	6310	Ki (D(2) dopamine receptor): 954 nM
NC(=O)c1ccccc1OCCCN1CCN(c2ccccc2)CC1	143				
COc1cccc(N2CCN(CCCCOc3ccccc3C(N)=O)CC2)c1	38				
O=C1c2ccccc2C(=O)N1CCCCCN1CCN(c2ccccc2)CC1	8.5				
COc1cccc(N2CCN(CCOc3ccccc3C(N)=O)CC2)c1	155				
O=C1c2ccccc2S(=O)(=O)N1CCCCN1CCN(c2ccccc2)CC1					Ki (D(4) dopamine receptor): 136 nM
COc1ccccc1N1CCN(CCCCCCN2C(=O)c3ccccc3C2=O)CC1	22				
O=C1c2ccccc2S(=O)(=O)N1CCCN1CCN(c2ncccn2)CC1 [REVOSPIRONE]	2				
O=C1c2ccccc2C(=O)N1CCCN1CCN(c2ccccc2)CC1	200				
COc1ccccc1N1CCN(CCCCN2C(=O)c3ccccc3S2(=O)=O)CC1					Ki (D(4) dopamine receptor): 79 nM
O=C1c2ccccc2S(=O)(=O)N1CCCCCCN1CCN(c2ncccn2)CC1		2510	5710		
COc1cccc(N2CCN(CCCCCn3c(=O)oc4ccccc4c3=O)CC2)c1	20				
